Laboratory results as given in patent US7705119B1, “Compositions and methods useful for treating circulatory and hypovolemic shock” (University of Kentucky Research Foundation, priority 2007, dated 2010).
“Also recorded” adds a separate entry of the source. Square brackets hold non-standard residues; d marks the D form. Peptide text beside a SMILES is read from it.

Experiments:
[1] = test system: KATP channels; details: Wild et al. 1991; cited from earlier work
[2] = test system: Sprague-Dawley rats; assay: 30 minute inhibitor pre-treatment before 5.5 mg/kg Delt-E post hemorrhage injection; format: in vivo, rat; details: for Maximum HR in BPM ± S.E. / Maximum MAP in mmHg ± S.E. / Survival Time in minutes ± S.E.: then 5.5 mg/kg Delt-E post hemorrhage
From the text: The hemorrhagic shock model used was a volume-controlled model similar to that of Summers et al. Acad Emerg Med. 10:587-93 (2003). Forty-six male Sprague-Dawley rats (about 341-411 grams) were acclimated to a laboratory environment for a week. In dwelling heparinized PE 10 catheters were placed in the femoral artery and the femoral vein of anesthetized rats. The two catheters were combined and exited suprascapularly, tied in place with braided silk, and covered with a piece of hypoallergenic mesh to prevent kinking. Rats were then placed in recovery cages for 24 hr, allowed access to food and water, and allowed unrestricted access to both catheters. The femoral artery catheter was used for volume-controlled hemorrhage and blood pressure measurements and the femoral vein catheter was used for Delt-E infusion. Each selected animal was randomly assigned 1 of […] post hemorrhage treat groups: 1 mL/100 g saline control (n=6), 2.85 mg/kg Delt-E (n=6), 4.2 mg/kg Delt-E (n=6), 5.5 mg/kg Delt-E (n=6), and 14 mg/kg Delt-E (n=6). Animals were also selected and randomly assigned to 1 of 4, 30-minute pre-treatment inhibitor groups: Naltriben Methane Sulfonate (NTB) (n=4), Naltrexone (n=4), Glibenclamide (n=4), and 7-Dehydrobenzylidine naltrexone (BNTX) (n=4) followed by a 5.5 mg/kg injection of Delt-E.
Opioid Inhibitors: The opioid inhibitors (naltrexone, naltriben methane sulfonate (NTB) and 7 Dehydrobenzylidine naltrexone (BNTX) and Glibenclamide were administered 30 minutes prior to hemorrhage. MAP and HR were recorded continuously before hemorrhage to ensure no adverse affects on MAP or HR occurred as a result of the pre-injection. At the end of 30 minutes, volume-controlled hemorrhage was induced followed by a post hemorrhage injection of 5.5 mg/kg Delt-E, the optimal dose found to increase hemodynamic stability. Naltrexone (10 mg/kg, Sigma-Aldrich), NTB (1 mg/kg, Sigma-Aldrich), and BNTX (1 mg/kg, Tocris Bioscience) were used as 30 minute pre-injection opioid receptor antagonists. Glibenclamide (10 mg/kg, Sigma Aldrich) was used as a KATP channel blocker.
Data Analysis: Statistical analysis was preformed using SPSS software with P value <0.05 being considered significant. The survival, MAP, HR and lactic acid values were analyzed using repeated measures analysis of variance (ANOVA) between groups to identify differences between groups. To evaluate differences between means, the ANOVA with post hoc least square differences were used (LSD analysis).

[3] = test system: Sprague-Dawley rats; assay: Post hemorrhage Delt-E infusion, volume-controlled hemorrhagic shock model without fluid resuscitation; format: in vivo, rat; details: 14.0 mg/kg i.v. post hemorrhage
From the text: A murine hemorrhagic shock model was used to evaluate the effects of administration of Deltorphin-E (Delt-E), without concomitant fluid resuscitation, on hemodynamic status, plasma lactate levels, and survival rates.
The hemorrhagic shock model used was a volume-controlled model similar to that of Summers et al. Acad Emerg Med. 10:587-93 (2003). Forty-six male Sprague-Dawley rats (about 341-411 grams) were acclimated to a laboratory environment for a week. In dwelling heparinized PE 10 catheters were placed in the femoral artery and the femoral vein of anesthetized rats. […]
Treatment: Twenty-four hours after catheter placement, test rats (n=24) were infused in the femoral vein with either 2.85, 4.2, 5.5 or 14 mg/kg of Delt-E (Tyr-D-Ala-Phe-Ala-Ile-Gly-Asp-Phe-Ser-Ile-NH2; SEQ ID NO: 1) dissolved in 1.0 ml Lactated Ringers (LR) solution pH 7.4. […] Prior to hemorrhage MAP and HR were recorded to establish baseline levels. […] After the final mL of blood was removed the various venous catheter treatment injections were administered, MAP and HR were recorded continuously for the duration of survival or up to 6 hours.
Biomarker protocols: Survival time was determined by the post hemorrhage time after injection until death, or a predetermined 360 minute survival interval. […] Pulse pressure was determined by the difference (mmHg) between the systolic and diastolic pressure during a single cardiac cycle. […]

[4] = inhibitor 1 mg/kg 30 min prior to hemorrhage
[5] = inhibitor 10 mg/kg 30 min prior to hemorrhage

Compound	blockade of post hemorrhage hemodynamic recovery / survival benefits of 5.5 mg/kg Delt-E [2, 4]	Maximum HR in BPM ± S.E. [2, 4]	Maximum MAP in mmHg ± S.E. [2, 4]	Survival Time in minutes ± S.E. [2, 4]	blockade of post hemorrhage hemodynamic recovery / survival benefits of 5.5 mg/kg Delt-E [2, 5]	Maximum HR in BPM ± S.E. [2, 5]	Maximum MAP in mmHg ± S.E. [2, 5]	Survival Time in minutes ± S.E. [2, 5]	other results
DPDPE									cardioprotective effect in the presence of Glibenclamide [1]: could be negated by Glibenclamide
O=C1/C(=C/c2ccccc2)C[C@@]2(O)[C@H]3Cc4ccc(O)c5c4[C@@]2(CCN3CC2CC2)[C@H]1O5 [BNTX, 7-Dehydrobenzylidine naltrexone]	did not block	400 ± 77 BPM	55 ± 12 mmHg	356 ± 3 min					
COc1ccc(Cl)cc1C(=O)NCCc1ccc(S(=O)(=O)NC(=O)NC2CCCCC2)cc1 [Glibenclamide]					did not alter the survival advantage; also recorded: not blocked	393 ± 43 BPM	56 ± 10 mmHg	347 ± 15 min	
O=C1CC[C@@]2(O)[C@H]3Cc4ccc(O)c5c4[C@@]2(CCN3CC2CC2)[C@H]1O5 [Naltrexone]					partially blocked	419 ± 75 BPM	49 ± 8 mmHg	95 ± 11 min	
CC[C@H](C)[C@H](NC(=O)[C@H](CO)NC(=O)[C@H](Cc1ccccc1)NC(=O)[C@H](CC(=O)O)NC(=O)CNC(=O)[C@@H](NC(=O)[C@H](C)NC(=O)[C@H](Cc1ccccc1)NC(=O)[C@@H](C)NC(=O)[C@@H](N)Cc1ccc(O)cc1)[C@@H](C)CC)C(N)=O [Delt-E, Tyr-(D-Ala)-Phe-Ala-Ile-Gly-Asp-Phe-Ser-Ile-NH2] (H-Y[dA]FAIGDFSI-NH2)									Toxicity of dose [3]: toxic
Oc1ccc2c3c1O[C@H]1c4oc5ccccc5c4C[C@@]4(O)[C@@H](C2)N(CC2CC2)CC[C@]314 [NTB, Naltriben Methane Sulfonate]	blocked	423 ± 68 BPM	37 ± 13 mmHg	58 ± 12 min					
